Laboratory results published in the NIST ThermoML archive (doi:10.1016/j.jct.2014.04.017).

Details: 101.33 kPa, Liquid, Buoyancy - hydrostatic balance

CCCCCC[n+]1ccn(C)c1.O=S(=O)([N-]S(=O)(=O)C(F)(F)F)C(F)(F)F
Details | mass density [kg/m3]
262.98 K | 1405.31
268.26 K | 1400.21
272.74 K | 1395.9
278.03 K | 1390.98
283.18 K | 1385.8
288.12 K | 1381.67
292.84 K | 1377.27
298.15 K | 1372.76
303.13 K | 1368.35
308.26 K | 1362.94
313.34 K | 1358.8
318.28 K | 1354.33
323.34 K | 1349.1
328.18 K | 1345.78
332.77 K | 1341.44
338.51 K | 1336.76
343.65 K | 1332.79
348.22 K | 1328.79
352.66 K | 1324.84
358.06 K | 1320.79
364.78 K | 1314.72

CCCCn1cc[n+](C)c1C.F[P-](F)(F)(F)(F)F [1-butyl-2,3-dimethylimidazolium hexafluorophosphate]
Details | mass density [kg/m3]
308.17 K | 1342.4
313.09 K | 1338.43
318.12 K | 1334.34
323.15 K | 1330.39
328.24 K | 1326.32
333.37 K | 1322.54
338.85 K | 1318.34
343.33 K | 1314.8
347.97 K | 1310.87
352.71 K | 1307.2
357.94 K | 1302.89
364.63 K | 1298.26

CCn1cc[n+](C)c1.O=S(=O)([N-]S(=O)(=O)C(F)(F)F)C(F)(F)F
Details | mass density [kg/m3]
261.46 K | 1556.58
268.29 K | 1548.72
273.3 K | 1544.02
278.37 K | 1539.04
282.48 K | 1535.02
287.45 K | 1529.96
293.11 K | 1524.41
298.13 K | 1519.52
302.98 K | 1514.33
308.32 K | 1508.35
313.89 K | 1503.28
318.09 K | 1498.65
323.34 K | 1493.84
328.03 K | 1488.18
333.55 K | 1483.58
337.88 K | 1479.01
342.95 K | 1473.82
348.1 K | 1469.36
352.98 K | 1464.95
357.53 K | 1460.04
363.55 K | 1453.65

CCCC[n+]1ccn(C)c1.O=S(=O)([N-]S(=O)(=O)C(F)(F)F)C(F)(F)F
Details | mass density [kg/m3]
274.86 K | 1458.44
277.17 K | 1456.4
281.91 K | 1452.1
287.89 K | 1446.21
293.45 K | 1441.4
298.34 K | 1436.71
303.07 K | 1432.1
308.18 K | 1426.64
313.04 K | 1422.13
318.02 K | 1417.45
323.1 K | 1412.39
328.17 K | 1407.64
333.42 K | 1403.16
338.42 K | 1398.52
343.02 K | 1394.25
348.36 K | 1389.71
352.89 K | 1385.06
358.03 K | 1380.66
364.37 K | 1374.57

C[n+]1cc[nH]c1.O=S(=O)([N-]S(=O)(=O)C(F)(F)F)C(F)(F)F [1-methylimidazolium bis(trifluoromethylsulfonyl)imide]
Details | mass density [kg/m3]
323.28 K | 1614.04
325.58 K | 1610.84
328.01 K | 1607.46
330.51 K | 1605.18
333.62 K | 1601.54
335.65 K | 1599.35
338.58 K | 1596.52
340.97 K | 1593.47
343.62 K | 1590.71

CCCC[n+]1cccc(C)c1.F[P-](F)(F)(F)(F)F [1-butyl-3-methylpyridinium hexafluorophosphate]
Details | mass density [kg/m3]
322.98 K | 1321.09
327.57 K | 1317.44
333.44 K | 1312.89
338.78 K | 1308.72
343.67 K | 1304.93
348.19 K | 1301.53
353.1 K | 1297.87
358.08 K | 1294.06
364.61 K | 1289.01

CCCn1cc[n+](C)c1.F[P-](F)(F)(F)(F)F [1-methyl-3-propylimidazolium hexafluorophosphate]
Details | mass density [kg/m3]
303.08 K | 1410.96
313.18 K | 1402.37
318.04 K | 1398.33
323.07 K | 1393.53
328.22 K | 1389.63
333.39 K | 1385.32
338.41 K | 1381.11
343.27 K | 1377.03
348.16 K | 1372.97
352.56 K | 1369.14
358.11 K | 1364.85
364.89 K | 1359.36
